Data as given in paper PMC11413853, “Discovery of VU6007496: Challenges in the Development of an M1 Positive Allosteric Modulator Backup Candidate” (ACS Chemical Neuroscience, 2024).

What was measured:
Muscarinic M1 = test: Eurofins radioligand binding; parameters: species or system Human; conditions: specific binding
rats = test: Novel object recognition (NOR) test; format: in vivo, rat
Method: Novel Object Recognition Task
Rats were habituated for 10 min for 2 consecutive days in an empty novel object recognition (NOR) arena consisting of dark-colored plexiglass box (40 × 64 × 33 cm3). On day 3, rats were administered vehicle (0.5% natrasol/0.015% Tween80) or M1 PAM (0.1-3 mg/kg, p.o.., 10 mL/kg, n = 15-18) and returned to their home cage for 30 min. Rats were then placed in the NOR arena containing two identical objects for 10 min. Following the exposure period, rats were placed back into their home cages for 24 h. The rats were then returned to the arena in which one of the previously exposed (familiar) objects was replaced by a novel object and were video recorded for 5 min while they explored the two objects. Time spent exploring each object was scored by an observer blinded to the experimental conditions and the recognition index was calculated as [(time spent exploring novel object) – (time spent exploring familiar object)]/total time exploring objects.
Supplemental field electrophysiology methods
Recording pipettes were constructed from thin-walled borosilicate capillary glass tubing (I.D.=1.17 mm, O.D. 1.50 mm; Warner Instruments, Hamden, CT), pulled with a horizontal pipette puller (P-97 Sutter Instrument Co., Novata, CA) to a resistance of 1-3MΩ when filled with ACSF. […]

Estrogen ERα = test: Eurofins radioligand binding; parameters: species or system Human; conditions: specific binding
[1] = system: Leukotriene, Cysteinyl CysLT1; test: Eurofins radioligand binding; parameters: species or system Human; conditions: specific binding
Adrenergic α1A = test: Eurofins radioligand binding; parameters: species or system Human; conditions: specific binding
Hepatocyte MET ID, rat = format: in vitro ADME; conditions: 4-h incubation
Text: More concerning were the results generated via outsourced multispecies hepatocyte MET ID, which were drastically different than the liver S9MET ID. The extent of metabolism for VU6007496 with rat, dog, monkey and human hepatocytes was 64.7, 51.5, 63.9 and 99.5%, respectively (Figure 8). […] In human hepatocytes, PAM 11 was metabolized primarily to Metabolite A (24), the result of oxidative N-demethylation of the southern pyrazole. The other minor metabolites were oxidation on the tetrahydropyran moiety and included ring opening (Metabolite F, 25).[21]

Histamine H1 = test: Eurofins radioligand binding; parameters: species or system Human; conditions: specific binding
Sigma σ1 = test: Eurofins radioligand binding; parameters: species or system Human; conditions: specific binding
Dopamine D1 = test: Eurofins radioligand binding; parameters: species or system Human; conditions: specific binding
hERG = system: T1, hERG; test: Ion channel current (Charles River Study 200609.WVN); format: cell-based; conditions: human, n 3
T1 construct: Charles River
Text: (§1) Table S2. Effects of VU6007496 on Ion Channel Current (Charles River Study 200609.WVN)
(§2) Ion Channel Conc Mean % Standard Standard n Individual Data
(§3) (μM) Inhibition Deviation Error Points (% Inhibition)

hCav1.2 = system: T2, hCav1.2; test: as above; format: cell-based, human; conditions: 10 μM; n 4
T2 construct: Charles River
Text: as §1, §2, §3

hCav3.2 = system: T3, hCav3.2; test: as above; format: cell-based, human; conditions: 10 μM; n 4
T3 construct: Charles River
Text: as §1, §2, §3

hKvLQT1/minK = system: T4, hKvLQT1/minK; test: as above; format: cell-based, human; conditions: 10 μM; n 4
T4 construct: Charles River
Text: as §1, §2, §3

hNav1.5 (Phasic) = system: T5, hNav1.5 (Phasic); test: as above; format: cell-based, human; conditions: 10 μM, n 4
T5 construct: Charles River Study 200609.WVN
Text: as §1, §2, §3

hKv1.3 = system: T6, hKv1.3; test: as above; format: cell-based, human; conditions: 10 μM; n 4
T6 construct: Charles River
Text: as §1, §2, §3

hNav1.5 (Tonic) = system: T7, hNav1.5 (Tonic); test: as above; format: cell-based, human; conditions: 10 μM, n 4
T7 construct: Charles River Study 200609.WVN
Text: as §1, §2, §3

hHCN2 = system: T8, hHCN2; test: as above; format: cell-based, human; conditions: 10 μM; n 3
T8 construct: Charles River
Text: as §1, §2, §3

hKv1.5 = system: T9, hKv1.5; test: as above; format: cell-based, human; conditions: 10 μM; n 3
T9 construct: Charles River
Text: as §1, §2, §3

Neuropeptide Y Y2 = test: Eurofins radioligand binding; parameters: species or system Human; conditions: specific binding
CYP1A2 = test: CYP induction (mRNA) in cryopreserved human hepatocytes, CYP1A2; format: in vitro ADME; conditions: three donors
Text: To advance 11 as a candidate and into IND-enabling studies, we next needed to better understand its CYP profile to minimize drug–drug interactions in the clinic. […] We were pleased to see the contribution of another CYP beyond 3A4 for the metabolism of 11.[21] In parallel, we investigated the ability of PAM 11 to induce the expression of CYP450s (measuring mRNA) in cryopreserved human hepatocytes from three separate donors.

Endothelin ETB = test: Eurofins radioligand binding; parameters: species or system Human; conditions: specific binding
[2] = system: Calcium Channel L-Type, Dihydropyridine; test: Eurofins radioligand binding; parameters: species or system Rat; conditions: specific binding
Dopamine D4.4 = test: Eurofins radioligand binding; parameters: species or system Human; conditions: specific binding
Opiate μ (OP3, MOP) = test: Eurofins radioligand binding; parameters: species or system Human; conditions: specific binding
Cannabinoid CB1 = test: Eurofins radioligand binding; parameters: species or system Human; conditions: specific binding
[3] = system: Calcium Channel L-Type, Benzothiazepine; test: Eurofins radioligand binding; parameters: species or system Rat; conditions: specific binding
Glutamate, NMDA, Glycine = Glutamate, NMDA, Glycine (Rattus norvegicus, UniProt P35439); test: Eurofins radioligand binding; conditions: specific binding
Sequence of Glutamate, NMDA, Glycine (P35439 394-800 limits assumed): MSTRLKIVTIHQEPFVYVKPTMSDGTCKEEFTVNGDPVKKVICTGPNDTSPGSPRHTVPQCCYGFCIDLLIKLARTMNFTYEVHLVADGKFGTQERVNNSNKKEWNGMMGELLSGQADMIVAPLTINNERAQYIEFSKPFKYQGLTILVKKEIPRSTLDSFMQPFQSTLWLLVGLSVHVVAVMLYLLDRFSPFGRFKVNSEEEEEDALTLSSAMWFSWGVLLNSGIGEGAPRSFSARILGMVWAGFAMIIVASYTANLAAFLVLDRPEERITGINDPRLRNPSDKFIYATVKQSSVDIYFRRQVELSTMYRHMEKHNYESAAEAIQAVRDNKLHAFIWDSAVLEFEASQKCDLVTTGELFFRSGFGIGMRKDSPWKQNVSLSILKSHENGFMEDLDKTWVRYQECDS

**Q.** With `Cn1ccc(-c2ccc(Cc3cc(C(=O)NC4CCOCC4)nc4ccn(C)c34)cc2)n1` [compound 11] as the molecule, how does the “% Inhibition at 10 µM” value (Muscarinic M1) read?
**A.** Its value is -8%.

**Q.** And the “effect on recognition memory (NOR)” value (rats; rats, 0.1, 0.3, 1, and 3 mg/kg p.o., 30 min pretreatment, assessed 24 h later)?
**A.** The value was “dose-dependently enhanced recognition memory”.

**Q.** What about the “minimum effective dose (MED) in novel object recognition” value (rats; rats, p.o.) of the same molecule?
**A.** The value was 3 mg/kg.

**Q.** And the “% Inhibition at 10 µM” value (Estrogen ERα)?
**A.** Its value is 5%.

**Q.** And the “% Inhibition at 10 µM” value [1]?
**A.** The value was 3%.

**Q.** And the “% Inhibition at 10 µM” value (Adrenergic α1A)?
**A.** Its value is -1%.

**Q.** And the “extent of metabolism, rat hepatocytes” value (Hepatocyte MET ID, rat)?
**A.** The value was 64.7%.

**Q.** And the “% Inhibition at 10 µM” value (Histamine H1)?
**A.** Its value is 5%.

**Q.** What about the “% Inhibition at 10 µM” value (Sigma σ1) of the same molecule?
**A.** The value was -8%.

**Q.** And the “% Inhibition at 10 µM” value (Dopamine D1)?
**A.** The value was 5%.

**Q.** What about the inhibition at 10 µM (hERG) of the same molecule?
**A.** Its inhibition at 10 µM is 2.6%.

**Q.** And the “Mean % Inhibition” value (hCav1.2)?
**A.** The value was 12.8%.

**Q.** And the “Mean % Inhibition” value (hCav3.2)?
**A.** Its value is 4.2%.

**Q.** And the “Mean % Inhibition” value (hKvLQT1/minK)?
**A.** Its value is 13.5%.

**Q.** And the “Mean % Inhibition” value (hNav1.5 (Phasic))?
**A.** Its value is 11.4%.

**Q.** And the “Mean % Inhibition” value (hKv1.3)?
**A.** The value was 16.5%.

**Q.** And the “Mean % Inhibition” value (hNav1.5 (Tonic))?
**A.** Its value is 3.9%.

**Q.** What about the “Mean % Inhibition” value (hHCN2) of the same molecule?
**A.** The value was 4.9%.

**Q.** What about the “Mean % Inhibition” value (hKv1.5) of the same molecule?
**A.** The value was 8.7%.

**Q.** What about the “% Inhibition at 10 µM” value (Neuropeptide Y Y2) of the same molecule?
**A.** The value was 31%.

**Q.** And the “CYP1A2 induction (mRNA)” value (CYP1A2)?
**A.** Its value is about 3 fold.

**Q.** What about the “% Inhibition at 10 µM” value (Endothelin ETB) of the same molecule?
**A.** The value was -5%.

**Q.** And the “% Inhibition at 10 µM” value [2]?
**A.** Its value is -8%.

**Q.** And the “% Inhibition at 10 µM” value (Dopamine D4.4)?
**A.** Its value is 1%.

**Q.** And the “% Inhibition at 10 µM” value (Opiate μ (OP3, MOP))?
**A.** The value was -4%.

**Q.** What about the “% Inhibition at 10 µM” value (Cannabinoid CB1) of the same molecule?
**A.** Its value is 5%.

**Q.** And the “% Inhibition at 10 µM” value [3]?
**A.** Its value is 12%.

**Q.** And the inhibition at 10 µM (Glutamate, NMDA, Glycine)?
**A.** Its inhibition at 10 µM is 0%.
